Results from patent US20250215006A1, “TRICYCLIC COMPOUNDS AS INHIBITORS OF WRN” (Incyte Corporation, priority 2023, published 2025).

Experiments:
WRN [1] = molecular target: T1, WRN (Homo sapiens, UniProt Q14191); experiment: WRN ATPase activity assay (ADP-Glo); assay type: biochemical; settings: 1-hr pre-incubation with enzyme; 100 μM ATP, 25 nM forked dsDNA, 1 nM WRN; geometric mean of at least 2 replicates
T1 construct: A His-tagged construct of WRN (AA S2-S1235) was produced and used for the ATPase assay; His; made in house; host or cells: Sf9 insect cells (baculovirus, pFastBac1)
T1 sequence (Q14191 2-1235): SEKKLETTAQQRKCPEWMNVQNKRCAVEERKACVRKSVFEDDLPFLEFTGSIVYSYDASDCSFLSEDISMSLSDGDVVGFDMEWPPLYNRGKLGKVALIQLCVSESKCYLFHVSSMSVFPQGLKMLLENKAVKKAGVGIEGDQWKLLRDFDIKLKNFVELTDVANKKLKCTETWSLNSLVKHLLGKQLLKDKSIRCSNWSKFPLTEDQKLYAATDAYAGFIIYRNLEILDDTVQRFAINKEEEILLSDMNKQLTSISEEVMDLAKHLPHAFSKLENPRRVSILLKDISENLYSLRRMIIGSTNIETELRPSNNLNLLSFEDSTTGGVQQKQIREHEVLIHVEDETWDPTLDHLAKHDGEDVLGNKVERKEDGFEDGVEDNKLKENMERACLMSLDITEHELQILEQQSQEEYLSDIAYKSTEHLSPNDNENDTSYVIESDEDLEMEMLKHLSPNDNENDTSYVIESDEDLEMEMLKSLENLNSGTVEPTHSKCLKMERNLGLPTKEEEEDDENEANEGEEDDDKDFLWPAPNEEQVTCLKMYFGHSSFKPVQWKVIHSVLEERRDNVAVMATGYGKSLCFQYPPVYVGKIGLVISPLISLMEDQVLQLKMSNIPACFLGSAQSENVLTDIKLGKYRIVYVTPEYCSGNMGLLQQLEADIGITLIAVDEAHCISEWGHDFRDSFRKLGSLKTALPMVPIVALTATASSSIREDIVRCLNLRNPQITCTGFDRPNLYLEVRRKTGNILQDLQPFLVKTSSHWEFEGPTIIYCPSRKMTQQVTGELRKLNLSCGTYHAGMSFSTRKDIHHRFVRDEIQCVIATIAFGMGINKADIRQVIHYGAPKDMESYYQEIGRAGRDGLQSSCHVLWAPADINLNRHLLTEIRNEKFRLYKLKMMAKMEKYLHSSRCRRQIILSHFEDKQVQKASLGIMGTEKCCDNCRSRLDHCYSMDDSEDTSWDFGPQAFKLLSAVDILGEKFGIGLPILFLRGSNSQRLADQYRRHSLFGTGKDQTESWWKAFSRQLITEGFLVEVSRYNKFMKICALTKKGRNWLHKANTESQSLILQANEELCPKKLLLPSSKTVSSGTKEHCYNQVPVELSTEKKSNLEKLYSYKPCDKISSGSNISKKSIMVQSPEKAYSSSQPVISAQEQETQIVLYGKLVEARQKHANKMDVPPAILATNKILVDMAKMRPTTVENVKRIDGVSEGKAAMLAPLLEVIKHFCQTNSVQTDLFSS
Experimental: Compounds of the Examples were tested for WRN ATPase activity. WRN ATPase activity catalyzes ATP hydrolysis to produce ADP and phosphate. DNA encoding the target protein, 6×HIS-TEV-WRN-517-945, was produced, cloned and transfected as detailed in Example D. The amount of ADP produced was measured using ADP-Glo™ Kinase Assay kit from Promega Corporation in a Greiner white regular volume 384 wells assay plate (Greiner #781075). Data was normalized to a standard curve generated using various ADP concentrations and the corresponding luminescent signal intensities at each concentration. The assay conditions were optimized for enzyme concentration (WRN), substrate concentrations (ATP & dsDNA), and the linearity of the ATPase reaction, in the following assay buffer: 50 mM Tris-HCl, pH-7.5, 2 mM MgCl2, 50 mM NaCl, 1 mM EGTA, 0.01% P-20, 0.05% BSA, and 2 mM DTT prepared with nuclease free water.
A serial dilution (1:3 scheme) of the compounds were prepared in neat DMSO, with 100 nL of the compounds dispensed in the 384 wells assay plate. An 1-hr pre-incubation of the compounds with enzyme was included. A His-tagged construct of WRN (AA S2-S1235) was produced and used for the ATPase assay. Maximum inhibition control wells were set up with the addition of only assay buffer, and no inhibition control wells were set up with neat DMSO without test compounds. The reaction was initiated by addition of 5 μL substrate mix (200 μM ultrapure ATP, and 50 nM dsDNA prepared in assay buffer) and incubated at 25° C. for 35 min. A forked dsDNA oligomer substrate was prepared by annealing equal amounts of oligo GPat-1 ([BHQ2][…]) and oligo GPat-2 ([…][TAM]) and was used as dsDNA substrate for WRN ATPase assay. A typical ATPase reaction consists of 25 nM forked dsDNA, 100 μM ATP, and 1 nM WRN prepared in assay buffer. The WRN ATPase reaction was stopped by the addition of 5 μL of ADP-Glo Reagent from ADP-Glo™ Kinase Assay kit and incubated for 40 min to deplete the unreacted ATP. Afterwards, 5 μL of Kinase Detection Reagent from the ADP-Glo™ Kinase Assay kit was added and incubated for 1 hr for the development of luminescence signal.
Luminesce signals were measured on BMG PHERAstar FSX using luminescence protocol. Data analysis was carried out using Genedata software following % of control normalization. Fitting parameters include dose response IC50, Hill slope (n), maximum inhibition (S∞), and minimum inhibition (S0). The reported IC50 values for compounds in this invention are the geometric means of at least 2 independent replicates.

WRN [2] = molecular target: T1, WRN; experiment: WRN Helicase activity assay (fluorescence DNA unwinding); assay type: biochemical; settings: 1-hr pre-incubation with enzyme; 100 μM ATP, 25 nM forked dsDNA, 1 nM WRN; geometric mean of at least 2 replicates
Experimental: Compounds of the examples were tested for WRN helicase activity. DNA encoding the target protein, 6×HIS-TEV-WRN-517-945, was produced, cloned and transfected as detailed in Example D. To determine the inhibitory properties of the compounds, a 384 wells plate-based Helicase assay was set up to measure the extent of DNA unwinding (Helicase) activity of WRN. The WRN Helicase assay was designed to measure increase in fluorescence signal using a fluorescence based, donor-quencher paired forked dsDNA oligomer substrate (custom synthesis from Sigma-Aldrich) prepared by annealing equal amounts of oligo GPat-1 ([BHQ2][…]) and oligo GPat-2 ([…][TAM]). Continuous measurement of fluorescent signal was used to optimize the buffer conditions, concentration of enzyme (WRN), concentration of substrates (ATP & dsDNA), and the linearity of the Helicase reaction. All solutions were prepared in the following assay buffer: 50 mM Tris-HCl, pH-7.5, 2 mM MgCl2, 50 mM NaCl, 1 mM EGTA, 0.01% P-20, 0.05% BSA, and 2 mM DTT prepared with nuclease free water.
A serial dilution (1:3 scheme) of the compounds was prepared in neat DMSO and 100 nL of the compounds was dispensed in the Greiner black low volume (Greiner #784076) 384 wells assay plate. An 1-hr pre-incubation of the compounds with enzyme was included. A His-tagged construct of WRN (AA S2-S1235) was produced and used for the ATPase assay. Maximum inhibition control wells were set up with the addition of only assay buffer, and no inhibition control wells were set up with neat DMSO without test compounds. The reaction was initiated by addition of 5 μL substrate mix (200 μM ultrapure ATP, and 50 nM dsDNA prepared in assay buffer) and incubated at 25° C. for 35 min. A typical Helicase reaction consists of 25 nM forked dsDNA, 100 μM ATP, and 1 nM WRN prepared in assay buffer. The WRN Helicase reaction was quenched by the addition of 5 μL ‘STOP’ solution containing 100 mM EDTA (final EDTA concentration 33.33 mM) prepared in assay buffer. The plates were read on BMG PHERAstar FSX using 540/590 module to measure an increase of fluorescence. Data analysis was carried out using the Genedata software following % of control normalization. Fitting parameters include dose response IC50, Hill slope (n), maximum inhibition (S∞), and minimum inhibition (S0). The reported IC50 values for compounds in this invention are the geometric means of at least 2 independent replicates.

Row | SMILES | IC50 (WRN [1]) | IC50 (WRN [2])
1 | C=CC(=O)Nc1ccccc1-c1c(CC)nc2n(CC(=O)Nc3ccc(CC)cc3)c3ccccc3n2c1=O [Example 5, N-(2-(2-Ethyl-10-(2-((4-ethylphenyl)amino)-2-oxoethyl)-4-oxo-4,10-dihydrobenzo[4,5]imidazo[1,2-a]pyrimidin-3-yl)phenyl)acrylamide] | < 100 nM | < 100 nM
2 | C=CC(=O)Nc1ccccc1-c1c(CC)nc2n(CC(=O)Nc3ccc(F)cc3Cl)c3ccccc3n2c1=O [Example 6, N-(2-(10-(2-((2-Chloro-4-fluorophenyl)amino)-2-oxoethyl)-2-ethyl-4-oxo-4,10-dihydrobenzo[4,5]imidazo[1,2-a]pyrimidin-3-yl)phenyl)acrylamide] | < 100 nM | < 100 nM
3 | C=CC(=O)Nc1ccccc1-c1c(CC)nc2n(CC(=O)Nc3cccc(C(F)(F)F)c3)c3ccccc3n2c1=O [Example 7, N-(2-(2-Ethyl-4-oxo-10-(2-oxo-2-((3-(trifluoromethyl)phenyl)amino)ethyl)-4,10-dihydrobenzo[4,5]imidazo[1,2-a]pyrimidin-3-yl)phenyl)acrylamide] | 100 to 500 nM | 100 to 500 nM
4 | C=CC(=O)Nc1ccccc1-c1c(CC)nc2n(CC(=O)Nc3ccc(F)c(F)c3)c3ccccc3n2c1=O [Example 8, N-(2-(10-(2-((3,4-Difluorophenyl)amino)-2-oxoethyl)-2-ethyl-4-oxo-4,10-dihydrobenzo[4,5]imidazo[1,2-a]pyrimidin-3-yl)phenyl)acrylamide] | < 100 nM | < 100 nM
5 | C=CC(=O)Nc1ccccc1-c1c(CC)nc2n(CC(=O)Nc3ccc(F)cc3C)c3ccccc3n2c1=O [Example 9, N-(2-(2-Ethyl-10-(2-((4-fluoro-2-methylphenyl)amino)-2-oxoethyl)-4-oxo-4,10-dihydrobenzo[4,5]imidazo[1,2-a]pyrimidin-3-yl)phenyl)acrylamide] | < 100 nM | < 100 nM
6 | C=CC(=O)Nc1ccccc1-c1c(CC)nc2n(CC(=O)NC3CCCCC3)c3ccccc3n2c1=O [Example 10, N-(2-(10-(2-(Cyclohexylamino)-2-oxoethyl)-2-ethyl-4-oxo-4,10-dihydrobenzo[4,5]imidazo[1,2-a]pyrimidin-3-yl)phenyl)acrylamide] | 1000 to 5000 nM | 1000 to 5000 nM
7 | C=CC(=O)Nc1ccc(C(=O)OC)cc1-c1c(CC)nc2n(CC(=O)Nc3ccc(F)cc3)c3ccccc3n2c1=O [Example 11, Methyl 4-acrylamido-3-(2-ethyl-10-(2-((4-fluorophenyl)amino)-2-oxoethyl)-4-oxo-4,10-dihydrobenzo[4,5]imidazo[1,2-a]pyrimidin-3-yl)benzoate] | < 100 nM | < 100 nM

Further lines, results first:

Row | IC50 (WRN [1]) | IC50 (WRN [2]) | SMILES
8 | < 100 nM | < 100 nM | C=CC(=O)Nc1ccccc1-c1c(CC)nc2n(CC(=O)Nc3ccc(F)cc3)c3ccccc3n2c1=O [Example 1, N-(2-(2-Ethyl-10-(2-((4-fluorophenyl)amino)-2-oxoethyl)-4-oxo-4,10-dihydrobenzo[4,5]imidazo[1,2-a]pyrimidin-3-yl)phenyl)acrylamide]
9 | < 100 nM | < 100 nM | C=CC(=O)Nc1ccccc1-c1c(CC)nc2n(CC(=O)Nc3ccccc3)c3ccccc3n2c1=O [Example 2, N-(2-(2-Ethyl-4-oxo-10-(2-oxo-2-(phenylamino)ethyl)-4,10-dihydrobenzo[4,5]imidazo[1,2-a]pyrimidin-3-yl)phenyl)acrylamide]
10 | < 100 nM | < 100 nM | C=CC(=O)Nc1ccccc1-c1c(CC)nc2n(CC(=O)Nc3ccc(C(F)(F)F)cc3)c3ccccc3n2c1=O [Example 3, N-(2-(2-Ethyl-4-oxo-10-(2-oxo-2-((4-(trifluoromethyl)phenyl)amino)ethyl)-4,10-dihydrobenzo[4,5]imidazo[1,2-a]pyrimidin-3-yl)phenyl)acrylamide]
11 | < 100 nM | < 100 nM | C=CC(=O)Nc1ccccc1-c1c(CC)nc2n(CC(=O)Nc3ccc(C(F)(F)F)cc3Cl)c3ccccc3n2c1=O [Example 4, N-(2-(10-(2-((2-Chloro-4-(trifluoromethyl)phenyl)amino)-2-oxoethyl)-2-ethyl-4-oxo-4,10-dihydrobenzo[4,5]imidazo[1,2-a]pyrimidin-3-yl)phenyl)acrylamide]
